Active and inactive are the calls of the source. No cut-off for these calls is given here.
Key:
DNA [1] = experiment: Photochemical activity against denatured calf thymus DNA at in dark after 180 mins by hyperchromicity test; format: nucleic-acid assay; details: Bos taurus
Bacillus subtilis [2] = experiment: Phototoxicity against Bacillus subtilis at 5 ug/disk in presence of cool-white fluorescent light; format: functional, organism-based
Saccharomyces cerevisiae [3] = experiment: Effect on Saccharomyces cerevisiae assessed as viable cell count at 10 ug/ml in petroleum ether after 1.33 Joules/cm'2 UV irradiation for 15 mins; format: functional
DNA [4] = experiment: Photochemical activity against denatured calf thymus DNA at 10 ug in dark after 60 mins by hyperchromicity test; format: nucleic-acid assay; details: Bos taurus; note: unit not given here
Saccharomyces cerevisiae [5] = experiment: Effect on Saccharomyces cerevisiae assessed as viable cell count at 10 ug/ml in petroleum ether in dark after 60 mins; format: functional
DNA [6] = experiment: Photochemical activity against denatured calf thymus DNA at 10 ug after UV irradiation with 5.33 Joules/cm'2 for 60 mins by hyperchromicity test; format: nucleic-acid assay; details: Bos taurus
Bacillus subtilis [7] = experiment: Phototoxicity against Bacillus subtilis at 5 ug/disk in presence of long wave UV light; format: functional, organism-based
Nannizzia gypsea [8] = experiment: Phototoxicity against Microsporum gypseum at 5 ug/disk in presence of long wave UV light; format: functional, organism-based
Saccharomyces cerevisiae [9] = experiment: Effect on Saccharomyces cerevisiae assessed as viable cell count at 10 ug/ml in petroleum ether in dark after 180 mins; format: functional
Proteus mirabilis [10] = experiment: Phototoxicity against Proteus mirabilis UBC 5 at 5 ug/disk in presence of long wave UV light; format: functional, organism-based
Escherichia coli [11] = experiment: Phototoxicity against Escherichia coli at 5 ug/disk in presence of cool-white fluorescent light; format: functional, organism-based
DNA [12] = experiment: Photochemical activity against denatured calf thymus DNA at 10 ug in dark by hyperchromicity test; format: nucleic-acid assay; details: Bos taurus; note: unit not given here
Sporobolomyces [13] = experiment: Phototoxicity against Sporobolomyces sp. Y138 at 5 ug/disk in presence of long wave UV light; format: functional, organism-based
DNA [14] = experiment: Photochemical activity against denatured calf thymus DNA 10 ug after UV irradiation with 2.67 Joules/cm'2 for 30 mins at by hyperchromicity test; format: nucleic-acid assay; details: Bos taurus
Saccharomyces cerevisiae [15] = experiment: Phototoxicity against Saccharomyces cerevisiae at 5 ug/disk in dark; format: functional, organism-based
[16] = Effect on human skin fibroblast cells assessed as viable cell count at 10 ug/ml in petroleum ether after 3.53 Joules/cm UV irradiation for 40 mins by trypan blue exclusion method; format: ADME, cell-based; details: read-out: Activity
Proteus mirabilis [17] = experiment: Phototoxicity against Proteus mirabilis UBC 5 at 5 ug/disk in presence of cool-white fluorescent light; format: functional, organism-based
Torula = experiment: Phototoxicity against Torula sp. at 5 ug/disk in dark; format: functional, organism-based
Kocuria rosea [18] = experiment: Phototoxicity against Micrococcus roseus UBC 289 at 5 ug/disk in dark; format: functional, organism-based
Saccharomyces cerevisiae [19] = experiment: Effect on Saccharomyces cerevisiae assessed as viable cell count at 10 ug/ml in petroleum ether after 2.67 Joules/cm'2 UV irradiation for 30 mins; format: functional
Escherichia coli [20] = experiment: Phototoxicity against Escherichia coli at 5 ug/disk in presence of long wave UV light; format: functional, organism-based
Candida albicans [21] = experiment: Phototoxicity against Candida albicans at 2.5 ug/disk after UV irradiation for 180 mins; format: functional, organism-based
Fusarium sp. [22] = experiment: Phototoxicity against Fusarium sp. at 5 ug/disk in presence of long wave UV light; format: functional, organism-based
Fusarium sp. [23] = experiment: Phototoxicity against Fusarium sp. at 5 ug/disk in dark; format: functional, organism-based
Paraphyton cookei [24] = experiment: Phototoxicity against Microsporum cookei at 5 ug/disk in dark; format: functional, organism-based
[25] = tested on: Staphylococcus epidermidis; experiment: Phototoxicity against Staphylococcus albus at 5 ug/disk in presence of cool-white fluorescent light; format: functional, organism-based
DNA [26] = experiment: Photochemical activity against denatured calf thymus DNA at 10 ug by hyperchromicity test; format: nucleic-acid assay; details: Bos taurus
Candida albicans [27] = experiment: Phototoxicity against Candida albicans at 5 ug/disk in presence of long wave UV light; format: functional, organism-based
Pseudomonas fluorescens [28] = experiment: Phototoxicity against Pseudomonas fluorescens at 5 ug/disk in presence of cool-white fluorescent light; format: functional, organism-based
[29] = Effect on human skin fibroblast cells assessed as viable cell count at 10 ug/ml in petroleum ether after 5.33 Joules/cm UV irradiation for 60 mins by trypan blue exclusion method; format: ADME, cell-based; details: read-out: Activity
Saccharomyces cerevisiae [30] = experiment: Phototoxicity against Saccharomyces cerevisiae at 5 ug/disk in presence of long wave UV light; format: functional, organism-based
Saccharomyces cerevisiae [31] = experiment: Phototoxicity against Saccharomyces cerevisiae at 2.5 ug/disk after UV irradiation for 30 mins; format: functional, organism-based
Saccharomyces cerevisiae [32] = experiment: Phototoxicity against Saccharomyces cerevisiae at 5 ug/disk in presence of cool-white fluorescent light; format: functional, organism-based
Paraphyton cookei [33] = experiment: Phototoxicity against Microsporum cookei at 5 ug/disk in presence of long wave UV light; format: functional, organism-based
Enterococcus faecalis [34] = experiment: Phototoxicity against Streptococcus fecalis at 5 ug/disk in dark; format: functional, organism-based
[35] = tested on: Trichophyton mentagrophytes; experiment: Phototoxicity against Trichophyton mentagrophytes at 5 ug/disk in dark; format: functional, organism-based
Bacillus subtilis [36] = experiment: Phototoxicity against Bacillus subtilis at 5 ug/disk in dark; format: functional, organism-based
Candida albicans [37] = experiment: Phototoxicity against Candida albicans at 5 ug/disk in presence of cool-white fluorescent light; format: functional, organism-based
Candida albicans [38] = experiment: Phototoxicity against Candida albicans at 2.5 ug/disk after UV irradiation for 30 mins; format: functional, organism-based
Nannizzia gypsea [39] = experiment: Phototoxicity against Microsporum gypseum at 5 ug/disk in presence of cool-white fluorescent light; format: functional, organism-based
Enterococcus faecalis [40] = experiment: Phototoxicity against Streptococcus faecalis at 5 ug/disk in presence of cool-white fluorescent light; format: functional, organism-based
Microsporum canis [41] = experiment: Phototoxicity against Microsporum canis at 5 ug/disk in presence of cool-white fluorescent light; format: functional, organism-based
Saccharomyces cerevisiae [42] = experiment: Phototoxicity against Saccharomyces cerevisiae at 2.5 ug/disk after UV irradiation for 180 mins; format: functional, organism-based
Escherichia coli [43] = experiment: Phototoxicity against Escherichia coli at 5 ug/disk in dark; format: functional, organism-based
Microsporum canis [44] = experiment: Phototoxicity against Microsporum canis at 5 ug/disk in dark; format: functional, organism-based
Pseudomonas fluorescens [45] = experiment: Phototoxicity against Pseudomonas fluorescens at 5 ug/disk in dark; format: functional, organism-based
Saccharomyces cerevisiae [46] = experiment: Effect on Saccharomyces cerevisiae assessed as viable cell count at 10 ug/ml in petroleum ether in dark after 15 mins; format: functional
Kocuria rosea [47] = experiment: Phototoxicity against Micrococcus roseus UBC 289 at 5 ug/disk in presence of long wave UV light; format: functional, organism-based
[48] = Effect on human skin fibroblast cells assessed as viable cell count at 10 ug/ml in petroleum ether after 8.00 Joules/cm UV irradiation for 90 mins by trypan blue exclusion method; format: ADME, cell-based; details: read-out: Activity
Microsporum canis [49] = experiment: Phototoxicity against Microsporum canis at 5 ug/disk in presence of long wave UV light; format: functional, organism-based
Sporobolomyces [50] = experiment: Phototoxicity against Sporobolomyces sp. Y138 at 5 ug/disk in dark; format: functional, organism-based
[51] = tested on: Staphylococcus epidermidis; experiment: Phototoxicity against Staphylococcus albus at 5 ug/disk in dark; format: functional, organism-based
Saccharomyces cerevisiae [52] = experiment: Effect on Saccharomyces cerevisiae assessed as viable cell count at 10 ug/ml in petroleum ether in dark after 30 mins; format: functional
Saccharomyces cerevisiae [53] = experiment: Effect on Saccharomyces cerevisiae assessed as viable cell count at 10 ug/ml in petroleum ether after 16 Joules/cm'2 UV irradiation for 180 mins; format: functional
[54] = Effect on human skin fibroblast cells assessed as viable cell count at 10 ug/ml in petroleum ether after 10.67 Joules/cm UV irradiation for 120 mins by trypan blue exclusion method; format: ADME, cell-based; details: read-out: Activity
Candida albicans [55] = experiment: Phototoxicity against Candida albicans at 5 ug/disk in dark; format: functional, organism-based

CC#CC#CC#Cc1ccccc1 [PHENYLHEPTATRIYNE]
Activity (DNA [1]): 0.18 | Activity (Bacillus subtilis [2]): Active | Activity (Saccharomyces cerevisiae [3]): 2.57 | Activity (DNA [4]): 0.18 | Activity (Saccharomyces cerevisiae [5]): 48.3 | Activity (DNA [6]): 0.02 | Activity (Bacillus subtilis [7]): Active | Activity (Nannizzia gypsea [8]): Active | Activity (Saccharomyces cerevisiae [9]): 53.5 | Activity (Proteus mirabilis [10]): Active | Activity (Escherichia coli [11]): inactive | Activity (DNA [12]): 0.17 | Activity (Sporobolomyces [13]): Active | Activity (DNA [14]): 0.03 | Activity (Saccharomyces cerevisiae [15]): inactive | viability at 40 min, 10 ug/ml [16]: 50% | Activity (Proteus mirabilis [17]): inactive | Activity (Torula): inactive | Activity (Kocuria rosea [18]): inactive | Activity (Saccharomyces cerevisiae [19]): 0.02 | Activity (Escherichia coli [20]): Active | Activity (Candida albicans [21]): inactive | Activity (Fusarium sp. [22]): Active | Activity (Fusarium sp. [23]): inactive | Activity (Paraphyton cookei [24]): inactive | Activity [25]: Active | Activity (DNA [26]): 0.18 | Activity (Candida albicans [27]): Active | Activity (Pseudomonas fluorescens [28]): inactive | viability at 1 h, 10 ug/ml [29]: 0% | Activity (Saccharomyces cerevisiae [30]): Active | Activity (Saccharomyces cerevisiae [31]): inactive | Activity (Saccharomyces cerevisiae [32]): Active | Activity (Paraphyton cookei [33]): Active | Activity (Enterococcus faecalis [34]): inactive | Activity [35]: inactive | Activity (Bacillus subtilis [36]): inactive | Activity (Candida albicans [37]): Active | Activity (Candida albicans [38]): inactive | Activity (Nannizzia gypsea [39]): Active | Activity (Enterococcus faecalis [40]): Active | Activity (Microsporum canis [41]): Active | Activity (Saccharomyces cerevisiae [42]): inactive | Activity (Escherichia coli [43]): inactive | Activity (Microsporum canis [44]): inactive | Activity (Pseudomonas fluorescens [45]): inactive | Activity (Saccharomyces cerevisiae [46]): 24.2 | Activity (Kocuria rosea [47]): Active | viability at 1.5 h, 10 ug/ml [48]: 0% | Activity (Microsporum canis [49]): Active | Activity (Sporobolomyces [50]): inactive | Activity [51]: inactive | Activity (Saccharomyces cerevisiae [52]): 35.8 | Activity (Saccharomyces cerevisiae [53]): 0 | viability at 2 h, 10 ug/ml [54]: 0% | Activity (Candida albicans [55]): inactive
